Like-named read-outs stand apart in the source and are kept apart here.
Key:
[1] = system: Hypertensive Activity of Angiotensin I; assay: Effect against hypertensive activity of angiotensin I in anaesthetized-cannulated rats after oral dosing; assay type: in vivo, Male rats (Sprague-Dawley); conditions: Rattus norvegicus, 138 µM/kg orally, corrected by angiotensin II response
Procedure: Male rats (Sprague-Dawley) weighing 230 to 350 g, which were fed under free access to drinking water and feeds, were used as experimental animals. The rats were anaesthetized with intraperitoneal administration of pentobarbital sodium (50 mg/kg) on the day before the test day, and a polyethylene tube was inserted into each femoral artery for measurement of blood pressare and the femoral vein for injection of angiotensin I and II, and then the tubes were fixed.
On the test day, an average blood pressure in the control phase was recorded on an electric haemedynamemeter (MP-4T model manufactured by Nippon Koden, Japan) and, thereafter, angiotensin I and then angionensin II were injected through the femoral vein at a dose of […] and 100 ng/kg, respectively, to measure the hypertensive activity. Then, 138 µM/kg of the compound of this invention were administrated orally as an aqueous solution or an aqueous gum arabic suspension, […], angiotensin I and II were injected repeatedly to trace hypertensive reactions. In calculating the percentage inhibition to the hypertensive activity of angiotensin 1, the percentage inhibitory value was corrected based on the variation with time in the hypertensive reaction by anziotensin II.

[2] = target: T1, angiotensin I converting enzyme (ACE) (Oryctolagus cuniculus, UniProt P12822); assay: Inhibition of angiotensin I converting enzyme (HHL substrate, hippuric acid colorimetry, modified Cushman method); assay type: biochemical, albino rabbit; conditions: ACE from rabbit lung, 37°C, one hour, read-out: Inhibitory Activity on ACE (%); for inhibition at 1 µM: Concentration 1 µM; for inhibition at 10 µM: Concentration 10 µM
T1 construct: prepared from the lungs of albino rabbit according to the method described by Wallace et al; from tissue; host or cells: lungs of albino rabbit
T1 sequence (P12822 34-1310): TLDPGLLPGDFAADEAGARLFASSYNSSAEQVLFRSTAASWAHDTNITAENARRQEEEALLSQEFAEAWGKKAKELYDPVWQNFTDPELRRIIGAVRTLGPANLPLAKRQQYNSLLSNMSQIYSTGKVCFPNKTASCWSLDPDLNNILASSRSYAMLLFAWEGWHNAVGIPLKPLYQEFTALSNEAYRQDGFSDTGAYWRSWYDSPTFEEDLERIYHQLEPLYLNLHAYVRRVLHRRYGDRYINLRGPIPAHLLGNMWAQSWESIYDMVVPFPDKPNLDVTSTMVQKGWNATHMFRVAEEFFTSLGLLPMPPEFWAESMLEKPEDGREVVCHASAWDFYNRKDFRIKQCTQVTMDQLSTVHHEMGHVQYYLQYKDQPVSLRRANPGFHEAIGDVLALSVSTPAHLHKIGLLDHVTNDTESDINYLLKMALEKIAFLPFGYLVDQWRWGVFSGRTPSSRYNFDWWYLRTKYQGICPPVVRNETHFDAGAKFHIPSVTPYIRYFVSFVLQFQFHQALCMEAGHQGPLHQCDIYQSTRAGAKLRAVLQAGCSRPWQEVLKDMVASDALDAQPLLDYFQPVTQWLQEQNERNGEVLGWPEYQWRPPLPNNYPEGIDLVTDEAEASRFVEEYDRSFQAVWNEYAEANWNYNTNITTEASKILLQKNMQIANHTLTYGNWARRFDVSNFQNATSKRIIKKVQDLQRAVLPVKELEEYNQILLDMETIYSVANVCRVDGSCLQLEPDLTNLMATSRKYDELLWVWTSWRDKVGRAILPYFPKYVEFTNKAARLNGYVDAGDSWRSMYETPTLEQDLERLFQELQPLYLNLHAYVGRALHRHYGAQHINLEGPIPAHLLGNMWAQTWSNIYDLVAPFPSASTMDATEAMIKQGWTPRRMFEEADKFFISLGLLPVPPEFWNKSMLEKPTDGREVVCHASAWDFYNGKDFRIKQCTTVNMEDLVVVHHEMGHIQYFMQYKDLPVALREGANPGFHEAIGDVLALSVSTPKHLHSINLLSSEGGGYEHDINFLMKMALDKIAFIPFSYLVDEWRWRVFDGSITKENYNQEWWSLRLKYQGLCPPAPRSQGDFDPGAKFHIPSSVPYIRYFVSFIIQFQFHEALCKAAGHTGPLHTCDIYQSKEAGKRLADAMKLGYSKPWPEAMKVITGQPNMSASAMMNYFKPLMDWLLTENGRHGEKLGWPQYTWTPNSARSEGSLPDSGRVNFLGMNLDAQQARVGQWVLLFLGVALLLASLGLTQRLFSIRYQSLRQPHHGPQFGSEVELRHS
Procedure: Inhibitions of Angiotensin I Converting Enzyme by the Compounds of this Invention.
The experiment was conducted in accordance with a modification of the method described by Cushman et al. [Biochemical Pharmacology, Vol. 20, p1637(1971)] using an angiotensin I converting enzyme (ACE) prepared from the lungs of albino rabbit according to the method described by Wallace et al. [American Journal of Physiology, Vol 234, page R141(1978)]. That is, using hippuryl-L-histidyl-L-leucin (HHL) as the substrate, the ACE inhibitory activity was determined in terms of percentage inhibitation on the amount of hippurie acid produced by ACE when the present compound was added. A solution of the compound of the present invention dissolved in an 0.02 to 2% dimethyl sulfoxide-500 mMpotassium phosphate buffer solution (pH 8.3, containing 300 mM sodium chloride) was added to 100 µℓ of ACE (protein concentration, 20 mg/mℓ) and 100 µℓ of 1.25 mM HHL. In this experiment a potassium phosphate buffer solution containing dimethyl sulfoxide at a concentration equal to that of the test solution was used as a control. After incubating the solution at 37°C for one hour, 150 µℓ of 1N hydrochloric acid were added to the solution to terminate the reaction. After 1 mℓ of ethyl acetate was added, the solution was centrifuged at 3000 r.p.m. for 10 minutes. An 0.5 mℓ aliquot was separated from the ethyl acetate layer and dried at a temperature below 50°C under a nitrogen. gas stream. The residue was mixed with mℓ of 1M aqueous sodium chloride and the mixture was subjected to colorimetry at a wavelength of 228 nm.

[3] = 20 min, After 20 min, read-out: Percent Inhibition (%) against Hyper-tensive Reaction by Angiotensin I After 20 min
[4] = 1 h, After 60 min, read-out: Percent Inhibition (%) against Hyper-tensive Reaction by Angiotensin I After 60 min
[5] = 2 h, After 120 min, read-out: Percent Inhibition (%) against Hyper-tensive Reaction by Angiotensin I After 120 min

inhibition at 1 µM [2] [%] | inhibition at 10 µM [2] [%] | SMILES | inhibition in vivo at 138 µM, 138 µmol/kg [1, 3] [%] | inhibition in vivo at 138 µM, 138 µmol/kg [1, 4] [%] | inhibition in vivo at 138 µM, 138 µmol/kg [1, 5] [%]
– | – | CC(=O)SCC(C)C(=O)N1Cc2cc3c(cc2CC1C(=O)O)CCCC3 (centres unmarked) [Example 4] | 90 | 79 | 63
– | – | CC(=O)SCC(CSC(C)=O)C(=O)N1Cc2cc3c(cc2CC1C(=O)O)CCCC3 (centres unmarked) [Example 58, 2-(3-acetylthio-2-acetylthiomethylpropionyl)-1,2,3,4,6,7,8,9-octahydrobenzo[g]isoquinoline-3--carboxylic aeid] | 80 | 78 | 66
– | – | CC(=O)SCC(C)C(=O)N1Cc2cc(N3CCCC3)ccc2CC1C(=O)O (centres unmarked) [Example 43] | 100 | 95 | 87
– | – | CC(=O)SCC(C)C(=O)N1[C@H](C)c2cc(O)c(O)cc2C[C@H]1C(=O)O (some centres unmarked) [Example 5, (M, 3S)-2-(5-acetylthio-2-methylpropionyl)-6,7-dihycroxy-1-methyl-1,2,3,4-tetrahydroisquinoline-3-carboxylie acid] | 84 | 98 | 96
– | – | COc1ccc2c(c1)CN(C(=O)C(C)CSC(C)=O)C(C(=O)O)C2 (centres unmarked) [Example 23, 2-(3-acetylthio-2-methylpropionyl)-7-methoxy-1,2, 3.4-tetrahydroisoquinoline-3-carboxylic acid] | 80 | 82 | 87
71 | 77 | CC(C)(C)c1ccc2c(c1)CN(C(=O)C(CS)CS)C(C(=O)O)C2 (centres unmarked) [Example 71, 7-tert-butyl-2-(3-mercapto-2-mereaptomethylprionyl)-1,2,3,4-tetrahydroisoquinoline-3-carboxylic acid] | – | – | –
83 | 100 | CC(=O)SCC(C)C(=O)N1Cc2cc3c(cc2C[C@H]1C(=O)O)OCO3 (stereo partly drawn) [Example 38, (3S)-2-(3-acetylthio-2-methylpropionyl)-6,7-methylenedioxy-1,2,3,4-tetrahydroisoquinoline-3-carboxylic acid] | – | – | –
– | – | O=C(O)C1Cc2cc3c(cc2CN1C(=O)C(CS)CS)OCO3 (centres unmarked) [Example 69, 2-(3-mercapto-2-mercapthylpropionyl)-6,7-methylenedioxy-1,2,3,4-tetrahydroisooquinoline-3-carboxylic acid] | 95 | 77 | 76
– | – | CC(CS)C(=O)N1Cc2cc(C(C)(C)C)ccc2C[C@H]1C(=O)O (stereo partly drawn) [Example 51, (3S)-7-tert-butyl-2-(3-mercapto-2-methylproplonyl)-1,2,3,4-tetrahydroisoquinoline-3-carboxylic acid] | 100 | 100 | 78
63 | 94 | CC(=O)SCC(C)C(=O)N1Cc2cc(CC(C)C)ccc2CC1C(=O)O (centres unmarked) [Example 34, 2-(3-acetylthio-2-methylpropionyl)-7-isobutyl-1,2,3,4-tetrahydroisoquinoline-3-carboxylic acid] | – | – | –
– | – | CC(=O)SCC(CSC(C)=O)C(=O)N1Cc2cc(C(C)C)ccc2CC1C(=O)O (centres unmarked) [Example 61, 2-(3-aeetylthio-2-acetylthiomethylpropionyl)-7-isopropyl-1,2,3,4-tetrahydroisoquinoline-3-carboxylic acid] | 78 | 84 | 58
69 | 93 | CC(=O)SCC(C)C(=O)N1Cc2cc(Br)ccc2CC1C(=O)O (centres unmarked) [Example 42, 2-(3-acetylthio-2-methylpropiony)-7-tromo-1,2,3,4-tetrahydroisoquinoline-3-carboxylic acid] | – | – | –
60 | 82 | CC(CS)C(=O)N1Cc2cc3c(cc2C[C@H]1C(=O)O)OCO3 (stereo partly drawn) [Example 52, (3S)-2-(3-mercapto-2-methylpropionul)-1,7-mezhylene-dioxy-1,2,3,4-tetrahydroisoquinoline-3-earboxylie acid] | – | – | –
33 | 90 | COc1cc2c(cc1O)CN(C(=O)C(C)CSC(C)=O)C(C(=O)O)C2 (centres unmarked) [Example 14, 2-(3-acetylthio-2-methylpropionyl)-7-hydroxy-6-methoxy-1,2,3,4-tetrahydroisoquinoline-3-carbxylic acid] | – | – | –
23 | 87 | CC(=O)SCC(C)C(=O)N1Cc2cc(O)c(O)cc2C[C@H]1C(=O)O (stereo partly drawn) [Example 1, (3S)-2-(3-acetylthio-2-methylpropionyl)-6,7-dihydroxy-1,2,3,4-tetrahydroisoquinoline-5-carboxylie aeid] | – | – | –
– | – | CC(=O)SCC(CSC(C)=O)C(=O)N1Cc2ccc(O)cc2CC1C(=O)O (centres unmarked) [Example 60, 2-(3-acetylthio-2-acetylthiomethylpropionyl)-6-hydroxy-1,2,3,4-tetrahydroisoquinoline-3-carboxylic acid] | 82 | 77 | 71
– | – | CC(=O)SCC(C)C(=O)N1Cc2cc(C(C)(C)C)ccc2CC1C(=O)O (centres unmarked) [Example 3, 2-(3-acetylthio-2-methylpropionyl)-7-tert-utyl-1,2,3,4-tetrahydroisoquinoline-3-carboxylic acid] | 86 | 94 | 90
– | – | CC(=O)SCC(CSC(C)=O)C(=O)N1Cc2cc(O)c(O)cc2C[C@H]1C(=O)O [Example 56, (S)-2-(3-acetylthio-2-acetylthiomethyl-propionyl)-6,7-dihydroxy-1,2,3,4-tetrahydroisoquinoline-3-carboxylic acid] | 80 | 84 | 69

— patent EP0018104A2, “Tetrahydroisoquinolines, their production and the compounds and pharmaceutical compositions containing them for use in the prevention or treatment of hypertension” (Takeda Chemical Industries, Ltd., priority 1979, dated 1980)
